How the values were obtained:
Details in all cases: incubation time: 72 h
CAL-148 [1] = experiment: drug sensitivity score (DSS), CellTiter-Glo (DSS (AUC-based score)); higher = stronger drug effect (viability inhibition or cytotoxicity); extreme values may be limits of the assay
Method in brief: (§1)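 After 72 h of incubation in 384-well plates with compound at 5 concentrations (10-fold steps, 10,000-fold range set per compound), breast cancer cell lines seeded in 20 µl suspension were read first for CellTox Green fluorescence at 485/520 nm. CellTiter-Glo luminescence was measured next, after 10 min at room temperature. Normalisation on each plate used 0.1 % DMSO and a positive kill control, and the drug sensitivity score was computed from the area under the fitted dose-response curve.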

HCC1143 [2] = experiment: as above
Method in brief: as §1

HCC1937 [3] = experiment: as above
Method in brief: as §1

HDQ-P1 [4] = experiment: as above
Method in brief: as §1

MDA-MB-231 [5] = experiment: as above
Method in brief: as §1

MDA-MB-453 [6] = experiment: as above
Method in brief: as §1

MFM-223 [7] = experiment: as above
Method in brief: as §1

BT-474 = experiment: drug sensitivity score (DSS), CellTox Green (DSS (AUC-based score)); higher = stronger drug effect (viability inhibition or cytotoxicity); extreme values may be limits of the assay
Method in brief: as §1

BT-549 = experiment: as above
Method in brief: as §1

CAL-120 = experiment: as above
Method in brief: as §1

CAL-148 [8] = experiment: as above
Method in brief: as §1

CAL-51 = experiment: as above
Method in brief: as §1

CAL-85-1 = experiment: as above
Method in brief: as §1

DU-4475 = experiment: as above
Method in brief: as §1

HCC1143 [9] = experiment: as above
Method in brief: as §1

HCC1599 = experiment: as above
Method in brief: as §1

HCC1937 [10] = experiment: as above
Method in brief: as §1

HDQ-P1 [11] = experiment: as above
Method in brief: as §1

Hs578T = experiment: as above
Method in brief: as §1

MCF-10A = experiment: as above
Method in brief: as §1

MDA-MB-231 [12] = experiment: as above
Method in brief: as §1

MDA-MB-436 = experiment: as above
Method in brief: as §1

MDA-MB-453 [13] = experiment: as above
Method in brief: as §1

MDA-MB-468 = experiment: as above
Method in brief: as §1

MFM-223 [14] = experiment: as above
Method in brief: as §1

Row | Structure (SMILES) | drug sensitivity score (CAL-148 [1]) | drug sensitivity score (HCC1143 [2]) | drug sensitivity score (HCC1937 [3]) | drug sensitivity score (HDQ-P1 [4]) | drug sensitivity score (MDA-MB-231 [5]) | drug sensitivity score (MDA-MB-453 [6]) | drug sensitivity score (MFM-223 [7]) | drug sensitivity score (BT-474) | drug sensitivity score (BT-549) | drug sensitivity score (CAL-120) | drug sensitivity score (CAL-148 [8]) | drug sensitivity score (CAL-51) | drug sensitivity score (CAL-85-1) | drug sensitivity score (DU-4475) | drug sensitivity score (HCC1143 [9]) | drug sensitivity score (HCC1599) | drug sensitivity score (HCC1937 [10]) | drug sensitivity score (HDQ-P1 [11]) | drug sensitivity score (Hs578T) | drug sensitivity score (MCF-10A) | drug sensitivity score (MDA-MB-231 [12]) | drug sensitivity score (MDA-MB-436) | drug sensitivity score (MDA-MB-453 [13]) | drug sensitivity score (MDA-MB-468) | drug sensitivity score (MFM-223 [14])
1 | CO[C@H]1C[C@@H]2CC[C@@H](C)[C@@](O)(O2)C(=O)C(=O)N2CCCC[C@H]2C(=O)O[C@H]([C@H](C)C[C@@H]2CC[C@@H](O)[C@H](OC)C2)CC(=O)[C@H](C)/C=C(\C)[C@@H](O)[C@@H](OC)C(=O)[C@H](C)C[C@H](C)/C=C/C=C/C=C/1C [Sirolimus] | 6.47 | 5.31 | 3.34 | 2.98 | 0 | 6.86 | 5.41 | 0 | 0 | 0 | 0 | 0 | 0 | 0 | 0 | 0 | 1.4 | 0 | 0 | 0 | 0 | 0 | 0 | 0 | 0
2 | CC/C(=C(\c1ccccc1)c1ccc(OCCN(C)C)cc1)c1ccccc1 [Tamoxifen] | 0 | 0 | 1.17 | 0 | 0 | 5.28 | 1.68 | 4.12 | 0 | 0 | 0 | 0 | 1.12 | 0 | 0 | 0 | 17.1 | 0 | 0 | 0 | 3.47 | 1.29 | 1.55 | 3.42 | 0
3 | COc1cc2c(N3CCN(C(=O)Nc4ccc(OC(C)C)cc4)CC3)ncnc2cc1OCCCN1CCCCC1 [Tandutinib] | 0 | 0 | 0 | 0 | 0 | 0 | 0 | 0 | 0 | 0 | 0 | 0 | 0 | 0 | 0 | 0 | 0 | 0 | 0 | 0 | 0 | 0 | 0 | 0 | 0
4 | Cn1nnc2c(C(N)=O)ncn2c1=O [Temozolomide] | 0 | 0 | 0 | 0 | 0 | 0 | 0 | 0 | 0 | 0 | 0 | 0 | 0 | 0 | 0 | 0 | 0 | 0 | 0 | 0 | 0 | 0 | 0 | 0 | 0
5 | CN1CCc2c(c3ccccc3n2Cc2ccc(C(=O)NO)cc2)C1 [Tubastatin A] | 0 | 2.45 | 1.2 | 0 | 0 | 0 | 0 | 0.156 | 0 | 0 | 0 | 7.48 | 0 | 0 | 10 | 0 | 0 | 0 | 0 | 0 | 2.06 | 0 | 0 | 1.42 | 0
6 | CC[C@@H]1C(=O)N(C)c2cnc(Nc3ccc(C(=O)N[C@H]4CC[C@H](N5CCN(CC6CC6)CC5)CC4)cc3OC)nc2N1C(C)C [Volasertib] | 4.27 | 11.2 | 3.79 | 5.3 | 9.58 | 12 | 15.5 | 0 | 3.98 | 0 | 0 | 14.5 | 8.26 | 0 | 14.8 | 0 | 17.3 | 7.16 | 10.7 | 19.4 | 3.33 | 0 | 0 | 0 | 14.5

From the supplement of paper PMC4862054
